Where a name gives a salt, the structure may show the parent alone.
Target: muscarinic acetylcholine receptors
Experiment: Inhibition of specific binding of 3H-Oxotremorine-M (3H-Oxo)
Design: species or system rat (male Wistar
Details: rat cortex; 3H-Oxotremorine 1.0 nM; 20 mM Hepes pH 7.4; 30 min at 25° C.
Experimental: The pharmacological properties of the compounds of the present invention (Formula I) can be illustrated by determining their capability to inhibit the specific binding of ^3 H-Oxotremorine-M (^3 H-Oxo).
^3 H-Oxo labels muscarinic receptors in the CNS (with a preference for agonist domaines of the receptors). Three different sites are labelled by 3H-Oxo. These sites have affinity of 1.0, 20 and 3000 nM, respectively. Using the present experimental conditions only the high and medium affinity sites are determined. The inhibitory effects of compounds on ^3 H-Oxo binding reflects the affinity for muscarinic acetylcholine receptors.
All preparations are performed at 0°-4° C. unless otherwise indicated. Fresh cortex (0.1-1 g) from male Wistar rats (150-250 g) is homogenized for 5-10 s in 10 ml 20 mM Hepes pH: 7.4, with an Ultra-Turrax homogenizer. The homogenizer is rinsed with 10 ml of buffer and the combined suspension centrifuged for 15 min at 40,000×g. The pellet is washed three times with buffer. In each step the pellet is homogenized as before in 2×10 ml of buffer and centrifuged for 10 min at 40,000×g. The final pellet is homogenized in 20 mM Hepes pH: 7.4 (100 ml per g of original tissue) and used for binding assay. Aliquots of 0.5 ml is added 25 μl of test solution and 25 μl of ^3 H-Oxotremorine (1.0 nM, final concentration) mixed and incubated for 30 min at 25° C. Non-specific binding is determined in triplicate using Arecoline (1 μg/ml, final concentration) as the test substance. After incubation samples are added 5 ml of ice-cold buffer and poured directly onto Whatman GF/C glass fiber filters under suction and immediately washed 2 times with 5 ml of ice-cold buffer. The amount of radioactivity on the filters are determined by conventional liquid scintillation counting. Specific binding is total binding minus non-specific binding. Test substances are dissolved in 10 ml water (if necessary heated on a steam-bath for less than 5 minutes) at a concentration of 2.2 mg/ml. 25-75% inhibition of specific binding must be obtained before calculation of IC50.
The test value will be given as IC50 (the concentration (ng/ml) of the test substance which inhibits the specific binding of ^3 H-Oxo by 50%). [formula] where Co is specific binding in control assays and Cx is the specific binding in the test assay. (The calculations assume normal mass-action kinetics).

Compound: COc1nsnc1C1=CCCN(C)C1.O=C(O)C(=O)O [Compound 1, 1,2,5,6-tetrahydro-3-(4-methoxy-1,2,5-thiadiazol-3-yl)-1-methylpyridine oxalate]
- Inhibition in vitro OXO BINDING (IC50: concentration which inhibits the specific binding of 3H-Oxo by 50%): 1.5 ng/mL

Compound: CCOc1nsnc1C1=CCCN(C)C1.O=C(O)C(=O)O [Compound 2, 3-(4-ethoxy-1,2,5-thiadiazol-3-yl)-1,2,5,6-tetrahydro-1-methylpyridine oxalate]
- Inhibition in vitro OXO BINDING (IC50: concentration which inhibits the specific binding of 3H-Oxo by 50%): 0.4 ng/mL

Compound: CCCOc1nsnc1C1=CCCN(C)C1.O=C(O)C(=O)O [Compound 3, 1,2,5,6-tetrahydro-1-methyl-3-(4-propoxy-1,2,5-thiadiazol-3-yl)pyridine oxalate]
- Inhibition in vitro OXO BINDING (IC50: concentration which inhibits the specific binding of 3H-Oxo by 50%): 0.2 ng/mL

Compound: CCCCOc1nsnc1C1=CCCN(C)C1.O=C(O)C(=O)O [Compound 4, 3-(4-butoxy-1,2,5-thiadiazol-3-yl)-1,2,5,6-tetrahydro-1-methylpyridine oxalate]
- Inhibition in vitro OXO BINDING (IC50: concentration which inhibits the specific binding of 3H-Oxo by 50%): 0.5 ng/mL

Compound: CC(C)Oc1nsnc1C1=CCCN(C)C1 [Compound 5, 1,2,5,6-tetrahydro-3-(4-isopropoxy-1,2,5-thiadiazol-3-yl)-1-methylpyridineoxalate]
- Inhibition in vitro OXO BINDING (IC50: concentration which inhibits the specific binding of 3H-Oxo by 50%): 3.5 ng/mL

Compound: CCCCCOc1nsnc1C1=CCCN(C)C1.O=C(O)C(=O)O [Compound 6, 1,2,5,6-tetrahydro-1-methyl-3-(4-pentyloxy-1,2,5-thiadiazol-3-yl)pyridine oxalate]
- Inhibition in vitro OXO BINDING (IC50: concentration which inhibits the specific binding of 3H-Oxo by 50%): 1.9 ng/mL

Compound: CC(C)COc1nsnc1C1=CCCN(C)C1.O=C(O)C(=O)O [Compound 7, 1,2,5,6-tetrahydro-3-(4-isobutoxy-1,2,5-thiadiazol-3-yl)-1-methylpyridine oxalate]
- Inhibition in vitro OXO BINDING (IC50: concentration which inhibits the specific binding of 3H-Oxo by 50%): 1.7 ng/mL

Compound: CC(C)CCOc1nsnc1C1=CCCN(C)C1.O=C(O)C(=O)O [Compound 8, 1,2,5,6-tetrahydro-3-(4-isopentyloxy-1,2,5-thiadiazol-3-yl)-1-methylpyridine oxalate]
- Inhibition in vitro OXO BINDING (IC50: concentration which inhibits the specific binding of 3H-Oxo by 50%): 1.9 ng/mL

Compound: CCCCCCOc1nsnc1C1=CCCN(C)C1 [Compound 9, 3-(4-hexyloxy-1,2,5-thiadiazol-3-yl)-1,2,5,6-tetrahydro-1-methylpyridineoxalate]
- Inhibition in vitro OXO BINDING (IC50: concentration which inhibits the specific binding of 3H-Oxo by 50%): 3.6 ng/mL

Compound: CN1CCC=C(c2nsnc2OCc2ccccc2)C1.O=C(O)C(=O)O [Compound 10, 3-(4-benzyloxy-1,2,5-thiadiazol-3-yl)-1,2,5,6-tetrahydro-1-methylpyridine oxalate]
- Inhibition in vitro OXO BINDING (IC50: concentration which inhibits the specific binding of 3H-Oxo by 50%): 2.3 ng/mL

Compound: C=CCCOc1nsnc1C1=CCCN(C)C1.O=C(O)C(=O)O [Compound 11, 3-(4-(3-butenyloxy)-1,2,5-thiadiazol-3-yl)-1,2,5,6-tetrahydro-1-methylpyridine oxalate]
- Inhibition in vitro OXO BINDING (IC50: concentration which inhibits the specific binding of 3H-Oxo by 50%): 0.9 ng/mL

Compound: CC#CCOc1nsnc1C1=CCCN(C)C1.O=C(O)C(=O)O [Compound 12, 3-(4-(2-butynyloxy)-1,2,5-thiadiazol-3-yl)-1,2,5,6-tetrahydro-1-methylpyridine oxalate]
- Inhibition in vitro OXO BINDING (IC50: concentration which inhibits the specific binding of 3H-Oxo by 50%): 0.3 ng/mL

Compound: C#CCOc1nsnc1C1=CCCN(C)C1.O=C(O)C(=O)O [Compound 13, 1,2,5,6-tetrahydro-1-methyl-3-(4-propargyloxy-1,2,5-thiadiazol-3-yl)pyridine oxalate]
- Inhibition in vitro OXO BINDING (IC50: concentration which inhibits the specific binding of 3H-Oxo by 50%): 0.3 ng/mL

Compound: CN1CCC=C(c2nsnc2OCC2CC2)C1.O=C(O)C(=O)O [Compound 14, 3-(4-cyclopropylmethoxy-1,2,5-thiadiazol-3-yl)-1,2,5,6-tetrahydro-1-methylpyridine oxalate]
- Inhibition in vitro OXO BINDING (IC50: concentration which inhibits the specific binding of 3H-Oxo by 50%): 0.4 ng/mL

Compound: COCCOc1nsnc1C1=CCCN(C)C1.O=C(O)C(=O)O [Compound 15, 1,2,5,6-tetrahydro-3-(4-methoxyethoxy-1,2,5-thiadiazol-3-yl)-1-methylpyridine oxalate]
- Inhibition in vitro OXO BINDING (IC50: concentration which inhibits the specific binding of 3H-Oxo by 50%): 0.6 ng/mL

Compound: CN1CCC=C(c2nsnc2Cl)C1.O=C(O)C(=O)O [Compound 16, 3-(4-chloro-1,2,5-thiadiazol-3-yl)-1,2,5,6-tetrahydro-1-methylpyridine oxalate]
- Inhibition in vitro OXO BINDING (IC50: concentration which inhibits the specific binding of 3H-Oxo by 50%): 3.3 ng/mL

Compound: Cl.Clc1nsnc1C1=CCCNC1 [Compound 17, 3-(4-chloro-1,2,5-thiadiazol-3-yl)-1,2,5,6-tetrahydropyridine hydrochloride]
- Inhibition in vitro OXO BINDING (IC50: concentration which inhibits the specific binding of 3H-Oxo by 50%): 19.0 ng/mL

Compound: CCCCOc1nsnc1C1=CCCNC1.O=C(O)C(=O)O [Compound 18, 3-(4-butoxy-1,2,5-thiadiazol-3-yl)-1,2,5,6-tetrahydropyridine oxalate]
- Inhibition in vitro OXO BINDING (IC50: concentration which inhibits the specific binding of 3H-Oxo by 50%): 3.6 ng/mL

Compound: CCN1CCC=C(c2nsnc2Cl)C1.O=C(O)C(=O)O [Compound 19, 3-(4-chloro-1,2,5-thiadiazol-3-yl)-1-ethyl-1,2,5,6-tetrahydropyridine oxalate]
- Inhibition in vitro OXO BINDING (IC50: concentration which inhibits the specific binding of 3H-Oxo by 50%): 92 ng/mL

Compound: CCOc1nsnc1C1=CCCN(CC)C1.O=C(O)C(=O)O [Compound 20, 3-(4-ethoxy-1,2,5-thiadiazol-3-yl)-1-ethyl-1,2,5,6-tetrahydropyridine oxalate]
- Inhibition in vitro OXO BINDING (IC50: concentration which inhibits the specific binding of 3H-Oxo by 50%): 5.9 ng/mL

Compound: CCCCCCCOc1nsnc1C1=CCCN(C)C1.O=C(O)C(=O)O [Compound 21, 3-(4-heptyloxy-1,2,5-thiadiazol-3-yl)-1,2,5,6-tetrahydro-1-methylpyridine oxalate]
- Inhibition in vitro OXO BINDING (IC50: concentration which inhibits the specific binding of 3H-Oxo by 50%): 2.4 ng/mL

Compound: CC#CCCOc1nsnc1C1=CCCN(C)C1.O=C(O)C(=O)O [Compound 22, 3-(4-(3-pentynyloxy)-1,2,5-thiadiazol-3-yl)-1,2,5,6-tetrahydro-1-methylpyridine oxalate]
- Inhibition in vitro OXO BINDING (IC50: concentration which inhibits the specific binding of 3H-Oxo by 50%): 0.4 ng/mL

Compound: C=CCCCOc1nsnc1C1=CCCN(C)C1.O=C(O)C(=O)O [Compound 23, 3-(4-(4-pentenyloxy)-1,2,5-thiadiazol-3-yl)-1,2,5,6-tetrahydro-1-methylpyridine oxalate]
- Inhibition in vitro OXO BINDING (IC50: concentration which inhibits the specific binding of 3H-Oxo by 50%): 0.3 ng/mL

Compound: C=CCOc1nsnc1C1=CCCN(C)C1.O=C(O)C(=O)O [Compound 24, 3-(4-(2-propenyloxy)-1,2,5-thiadiazol-3-yl)-1,2,5,6-tetrahydro-1-methylpyridine oxalate]
- Inhibition in vitro OXO BINDING (IC50: concentration which inhibits the specific binding of 3H-Oxo by 50%): 0.4 ng/mL

Compound: CCCCCCCCOc1nsnc1C1=CCCN(C)C1 [Compound 25, 3-(4-octyloxy-1,2,5-thiadiazol-3-yl)-1,2,5,6-tetrahydro-1-methylpyridineoxalate]
- Inhibition in vitro OXO BINDING (IC50: concentration which inhibits the specific binding of 3H-Oxo by 50%): 12 ng/mL

Compound: CCC#CCCOc1nsnc1C1=CCCN(C)C1.O=C(O)C(=O)O [Compound 26, 3-(4-(3-hexynyloxy) -1,2,5-thiadiazol-3-yl)-1,2,5,6-tetrahydro-1-methylpyridine oxalate]
- Inhibition in vitro OXO BINDING (IC50: concentration which inhibits the specific binding of 3H-Oxo by 50%): 0.4 ng/mL

Compound: CC(C)=CCOc1nsnc1C1=CCCN(C)C1.O=C(O)C(=O)O [Compound 27, 3-(4-(3-methyl-2-butenyloxy)-1,2,5-thiadiazol-3-yl)-1,2,5,6-tetrahydro-1-methylpyridine oxalate]
- Inhibition in vitro OXO BINDING (IC50: concentration which inhibits the specific binding of 3H-Oxo by 50%): 0.8 ng/mL

Compound: C=CC(C)Oc1nsnc1C1=CCCN(C)C1 (stereo not shown) [Compound 28, 3-(4-(3-butenyl-2-oxy)-1,2,5-thiadiazol-3-yl)-1,2,5,6-tetrahydro-1-methylpyridine oxalate]
- Inhibition in vitro OXO BINDING (IC50: concentration which inhibits the specific binding of 3H-Oxo by 50%): 1.3 ng/mL

Compound: CC=CCCCOc1nsnc1C1=CCCN(C)C1.O=C(O)C(=O)O [Compound 29, 3-(4-(4-hexenyloxy)-1,2,5-thiadiazol-3-yl)-1,2,5,6-tetrahydro-1-methylpyridine oxalate]
- Inhibition in vitro OXO BINDING (IC50: concentration which inhibits the specific binding of 3H-Oxo by 50%): 0.6 ng/mL

Compound: CC/C=C/CCOc1nsnc1C1=CCCN(C)C1.O=C(O)C(=O)O [Compound 30, trans-3-(4-(3-hexenyloxy)-1,2,5-thiadiazol-3-yl)-1,2,5,6-tetrahydro-1-methylpyridine oxalate]
- Inhibition in vitro OXO BINDING (IC50: concentration which inhibits the specific binding of 3H-Oxo by 50%): 0.4 ng/mL

Compound: CC/C=C\COc1nsnc1C1=CCCN(C)C1.O=C(O)C(=O)O [Compound 31, cis-3-(4-(2-pentenyloxy)-1,2,5-thiadiazol-3-yl)-1,2,5,6-tetrahydro-1-methylpyridine oxalate]
- Inhibition in vitro OXO BINDING (IC50: concentration which inhibits the specific binding of 3H-Oxo by 50%): 0.7 ng/mL

From US5712297A, “Piperdine compounds and their preparation and use” (Novo Nordisk A/S, priority 1989, dated 1998)
